Assay results from ChEMBL document CHEMBL5465560, “Selectivity Literature for EUbOPEN Chemogenomic Library” (2024).

Assays:
[1] = target: T1, Serine/threonine-protein kinase RIO3 (Homo sapiens) (UniProt O14730); conditions: at 10 µM
T1 sequence (whole entry): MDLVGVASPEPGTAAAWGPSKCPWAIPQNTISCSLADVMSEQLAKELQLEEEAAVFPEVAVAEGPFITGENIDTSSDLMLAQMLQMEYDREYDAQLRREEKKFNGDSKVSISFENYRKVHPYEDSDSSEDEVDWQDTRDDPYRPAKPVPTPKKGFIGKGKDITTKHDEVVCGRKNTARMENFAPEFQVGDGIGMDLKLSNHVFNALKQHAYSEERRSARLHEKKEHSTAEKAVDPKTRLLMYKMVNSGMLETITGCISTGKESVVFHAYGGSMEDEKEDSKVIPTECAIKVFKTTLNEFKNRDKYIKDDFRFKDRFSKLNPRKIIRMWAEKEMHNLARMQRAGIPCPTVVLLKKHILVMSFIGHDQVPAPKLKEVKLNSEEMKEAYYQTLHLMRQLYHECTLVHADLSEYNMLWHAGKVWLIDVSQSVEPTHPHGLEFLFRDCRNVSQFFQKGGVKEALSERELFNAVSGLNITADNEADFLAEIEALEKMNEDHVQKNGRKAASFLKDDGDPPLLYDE

[2] = target: Wee1-like protein kinase 2 (Homo sapiens) (UniProt P0C1S8); experiment: Selectivity interaction (Ambit KINOMEscan and KiNATiv profiling in Jurkat cells) EUB0000090b WEE2; type: cell-based; conditions: at 1 µM
Wee1-like protein kinase 2 (Homo sapiens), sequence (P0C1S8 whole entry, looked up): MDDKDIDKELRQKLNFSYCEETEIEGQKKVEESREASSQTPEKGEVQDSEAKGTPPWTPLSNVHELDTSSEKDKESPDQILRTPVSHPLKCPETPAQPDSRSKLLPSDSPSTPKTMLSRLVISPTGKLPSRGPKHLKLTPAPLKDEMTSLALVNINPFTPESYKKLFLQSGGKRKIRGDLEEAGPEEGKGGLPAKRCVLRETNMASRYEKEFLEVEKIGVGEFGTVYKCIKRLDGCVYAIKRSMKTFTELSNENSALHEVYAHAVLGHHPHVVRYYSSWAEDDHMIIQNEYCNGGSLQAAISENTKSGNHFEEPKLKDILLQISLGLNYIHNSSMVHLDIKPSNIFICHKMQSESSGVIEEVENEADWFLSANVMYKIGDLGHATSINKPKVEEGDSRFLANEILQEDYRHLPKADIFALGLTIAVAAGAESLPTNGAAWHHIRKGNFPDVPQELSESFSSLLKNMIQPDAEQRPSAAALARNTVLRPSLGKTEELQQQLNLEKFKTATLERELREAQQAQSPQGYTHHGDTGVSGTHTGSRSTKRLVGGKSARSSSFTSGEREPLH

[3] = target: Tyrosine-protein kinase Lck (Homo sapiens, UniProt P06239); experiment: Selectivity interaction (Kinase panel (literature)) EUB0001199aCl LCK; conditions: at 1 µM
Tyrosine-protein kinase Lck, sequence (P06239 2-509 limits assumed): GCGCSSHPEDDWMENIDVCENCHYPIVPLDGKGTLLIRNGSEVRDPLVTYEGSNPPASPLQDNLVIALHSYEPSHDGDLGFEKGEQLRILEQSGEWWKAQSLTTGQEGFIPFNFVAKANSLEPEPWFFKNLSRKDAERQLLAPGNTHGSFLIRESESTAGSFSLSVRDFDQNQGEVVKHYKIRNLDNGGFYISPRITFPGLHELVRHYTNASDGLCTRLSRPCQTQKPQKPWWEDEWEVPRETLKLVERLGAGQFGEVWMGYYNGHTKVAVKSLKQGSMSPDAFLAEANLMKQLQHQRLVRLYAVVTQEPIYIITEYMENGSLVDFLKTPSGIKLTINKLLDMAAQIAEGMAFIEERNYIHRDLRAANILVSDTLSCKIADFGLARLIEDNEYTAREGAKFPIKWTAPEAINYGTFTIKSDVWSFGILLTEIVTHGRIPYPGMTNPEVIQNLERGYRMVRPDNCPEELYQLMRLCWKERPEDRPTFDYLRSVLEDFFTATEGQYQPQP

[4] = target: T2, Inhibitor of nuclear factor kappa-B kinase subunit alpha (Homo sapiens) (UniProt O15111); experiment: Selectivity interaction (KinomeScan (DiscoverX)) EUB0001079a CHUK; conditions: at 1 µM
T2 sequence (whole entry): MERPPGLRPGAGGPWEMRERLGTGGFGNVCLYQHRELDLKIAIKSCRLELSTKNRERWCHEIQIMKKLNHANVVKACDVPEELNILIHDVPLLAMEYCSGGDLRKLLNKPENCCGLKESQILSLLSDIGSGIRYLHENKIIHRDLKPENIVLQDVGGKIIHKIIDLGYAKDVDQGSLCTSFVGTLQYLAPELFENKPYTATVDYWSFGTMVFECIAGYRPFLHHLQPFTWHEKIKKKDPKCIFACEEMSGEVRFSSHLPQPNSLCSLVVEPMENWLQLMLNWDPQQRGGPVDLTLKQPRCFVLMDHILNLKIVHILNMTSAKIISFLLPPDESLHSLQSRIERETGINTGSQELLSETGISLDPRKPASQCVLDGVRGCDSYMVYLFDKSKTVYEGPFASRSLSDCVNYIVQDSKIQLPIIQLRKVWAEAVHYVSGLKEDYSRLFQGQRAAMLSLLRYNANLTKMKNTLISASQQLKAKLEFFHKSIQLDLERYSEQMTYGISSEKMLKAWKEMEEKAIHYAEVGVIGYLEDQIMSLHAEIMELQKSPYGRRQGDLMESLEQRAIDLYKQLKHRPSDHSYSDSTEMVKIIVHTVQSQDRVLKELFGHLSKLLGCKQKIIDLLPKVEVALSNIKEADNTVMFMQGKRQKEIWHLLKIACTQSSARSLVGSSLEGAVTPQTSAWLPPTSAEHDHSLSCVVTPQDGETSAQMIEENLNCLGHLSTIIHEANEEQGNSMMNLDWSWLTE

[5] = target: Eukaryotic translation initiation factor 2-alpha kinase 1 (Homo sapiens) (UniProt Q9BQI3); experiment: Selectivity interaction (KinomeScan (DiscoverX)) EUB0000595a EIF2AK1; conditions: at 10 µM
Eukaryotic translation initiation factor 2-alpha kinase 1 (Homo sapiens), sequence (Q9BQI3 whole entry): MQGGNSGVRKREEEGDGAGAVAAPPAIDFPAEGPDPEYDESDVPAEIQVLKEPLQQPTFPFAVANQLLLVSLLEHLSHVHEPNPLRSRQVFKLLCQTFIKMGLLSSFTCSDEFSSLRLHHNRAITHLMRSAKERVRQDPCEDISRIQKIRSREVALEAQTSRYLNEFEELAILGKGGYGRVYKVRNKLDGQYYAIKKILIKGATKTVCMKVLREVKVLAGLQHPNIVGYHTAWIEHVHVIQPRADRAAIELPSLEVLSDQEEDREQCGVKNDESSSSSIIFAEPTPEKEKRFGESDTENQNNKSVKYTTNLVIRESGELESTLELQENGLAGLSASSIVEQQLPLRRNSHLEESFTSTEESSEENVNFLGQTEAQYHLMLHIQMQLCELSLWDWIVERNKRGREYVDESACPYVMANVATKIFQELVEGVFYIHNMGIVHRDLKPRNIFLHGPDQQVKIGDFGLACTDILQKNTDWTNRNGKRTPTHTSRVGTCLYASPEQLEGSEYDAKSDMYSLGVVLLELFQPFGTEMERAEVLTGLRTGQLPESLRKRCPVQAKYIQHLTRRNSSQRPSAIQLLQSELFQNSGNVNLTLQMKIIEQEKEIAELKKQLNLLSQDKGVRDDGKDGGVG

[6] = target: Phosphatidylinositol 4-kinase alpha (Homo sapiens, UniProt P42356); experiment: Selectivity interaction (Kinase panel (KiNativ target engagement assay in Jurkat cells)) EUB0001635a PI4KA; type: cell-based; conditions: Selectivity number of off-targets 0.0, Selectivity number of targets 233.0, Source Knowledge https://www.sciencedirect.com/science/article/pii/S2451945619300674?via%3Dihub, at 1 µM
Phosphatidylinositol 4-kinase alpha, sequence (P42356 whole entry, looked up): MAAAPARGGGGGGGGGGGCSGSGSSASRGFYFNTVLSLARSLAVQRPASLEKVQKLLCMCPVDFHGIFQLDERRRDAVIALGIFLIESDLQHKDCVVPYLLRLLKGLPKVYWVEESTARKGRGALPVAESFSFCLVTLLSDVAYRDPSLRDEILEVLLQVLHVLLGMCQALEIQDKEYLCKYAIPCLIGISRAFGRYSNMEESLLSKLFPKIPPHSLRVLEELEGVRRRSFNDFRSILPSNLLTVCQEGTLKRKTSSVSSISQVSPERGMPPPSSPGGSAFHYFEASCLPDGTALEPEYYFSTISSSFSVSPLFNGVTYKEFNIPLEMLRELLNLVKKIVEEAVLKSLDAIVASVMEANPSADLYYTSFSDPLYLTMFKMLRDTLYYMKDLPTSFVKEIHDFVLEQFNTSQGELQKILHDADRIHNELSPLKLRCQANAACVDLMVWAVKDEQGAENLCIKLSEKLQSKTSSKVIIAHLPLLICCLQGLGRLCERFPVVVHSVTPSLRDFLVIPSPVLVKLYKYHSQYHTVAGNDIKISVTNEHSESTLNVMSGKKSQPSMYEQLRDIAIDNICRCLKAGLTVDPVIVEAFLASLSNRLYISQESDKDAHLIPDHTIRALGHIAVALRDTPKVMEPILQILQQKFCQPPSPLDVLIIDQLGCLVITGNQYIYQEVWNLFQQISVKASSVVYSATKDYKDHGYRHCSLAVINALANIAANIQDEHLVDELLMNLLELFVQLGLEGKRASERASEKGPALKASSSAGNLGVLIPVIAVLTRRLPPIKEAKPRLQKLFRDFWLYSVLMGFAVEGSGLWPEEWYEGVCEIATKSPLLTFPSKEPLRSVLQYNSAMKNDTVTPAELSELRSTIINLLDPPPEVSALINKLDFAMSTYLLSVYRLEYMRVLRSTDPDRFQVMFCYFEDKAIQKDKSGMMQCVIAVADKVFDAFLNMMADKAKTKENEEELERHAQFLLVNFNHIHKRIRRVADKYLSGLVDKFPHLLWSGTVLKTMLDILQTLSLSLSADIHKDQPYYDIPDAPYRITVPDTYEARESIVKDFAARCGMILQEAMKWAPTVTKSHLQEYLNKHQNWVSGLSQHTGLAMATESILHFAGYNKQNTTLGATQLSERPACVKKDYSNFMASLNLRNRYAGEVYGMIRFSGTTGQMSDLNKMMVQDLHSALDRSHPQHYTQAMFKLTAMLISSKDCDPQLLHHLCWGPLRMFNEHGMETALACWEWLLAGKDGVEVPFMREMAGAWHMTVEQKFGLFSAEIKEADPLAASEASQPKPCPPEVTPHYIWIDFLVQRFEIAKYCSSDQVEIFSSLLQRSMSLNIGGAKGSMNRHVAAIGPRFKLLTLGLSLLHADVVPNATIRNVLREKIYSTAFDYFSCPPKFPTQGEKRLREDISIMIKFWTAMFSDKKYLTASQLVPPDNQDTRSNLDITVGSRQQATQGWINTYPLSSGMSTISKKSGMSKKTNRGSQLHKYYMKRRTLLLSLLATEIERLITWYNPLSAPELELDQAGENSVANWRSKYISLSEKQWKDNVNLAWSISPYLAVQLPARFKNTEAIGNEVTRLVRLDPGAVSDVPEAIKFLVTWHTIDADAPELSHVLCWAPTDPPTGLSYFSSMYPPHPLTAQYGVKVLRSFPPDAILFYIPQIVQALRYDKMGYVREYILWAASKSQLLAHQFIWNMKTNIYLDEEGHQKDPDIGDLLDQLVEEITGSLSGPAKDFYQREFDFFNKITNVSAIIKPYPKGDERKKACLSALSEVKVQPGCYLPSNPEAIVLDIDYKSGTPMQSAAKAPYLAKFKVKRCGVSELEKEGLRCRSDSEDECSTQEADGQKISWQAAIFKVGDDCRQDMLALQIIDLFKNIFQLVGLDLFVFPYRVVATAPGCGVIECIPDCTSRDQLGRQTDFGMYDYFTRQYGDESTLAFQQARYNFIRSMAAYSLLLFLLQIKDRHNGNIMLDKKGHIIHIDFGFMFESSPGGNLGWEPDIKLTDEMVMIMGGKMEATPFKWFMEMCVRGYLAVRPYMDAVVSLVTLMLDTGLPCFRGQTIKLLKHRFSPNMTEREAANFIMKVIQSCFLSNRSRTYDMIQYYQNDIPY

[7] = target: Tyrosine-protein kinase Srms (Homo sapiens) (UniProt Q9H3Y6); experiment: Selectivity interaction (ProQinase) EUB0000171b SRMS
Tyrosine-protein kinase Srms (Homo sapiens), sequence (Q9H3Y6 whole entry): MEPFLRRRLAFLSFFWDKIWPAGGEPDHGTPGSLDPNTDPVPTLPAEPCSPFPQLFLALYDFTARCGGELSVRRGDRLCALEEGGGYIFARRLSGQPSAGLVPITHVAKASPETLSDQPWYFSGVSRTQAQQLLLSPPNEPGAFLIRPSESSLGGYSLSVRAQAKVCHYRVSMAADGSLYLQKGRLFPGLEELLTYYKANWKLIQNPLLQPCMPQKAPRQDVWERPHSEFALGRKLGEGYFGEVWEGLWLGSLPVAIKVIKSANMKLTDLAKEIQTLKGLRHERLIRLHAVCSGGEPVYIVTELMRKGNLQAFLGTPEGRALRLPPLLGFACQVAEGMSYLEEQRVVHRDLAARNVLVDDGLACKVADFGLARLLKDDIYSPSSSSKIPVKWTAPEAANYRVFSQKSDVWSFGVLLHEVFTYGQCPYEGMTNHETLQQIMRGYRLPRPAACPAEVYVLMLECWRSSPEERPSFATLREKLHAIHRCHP

[8] = Selectivity interaction (Ex-vivo activation of CD20+ B cells in cynomolgus (anti-IgM/IL-4 stimulated pAKT)) EUB0000877a PIK3CD
[9] = target: T3, Calcium/calmodulin-dependent protein kinase type IV (Homo sapiens) (UniProt Q16566); experiment: Selectivity interaction (KinomeScan (DiscoverX)) EUB0000092b CAMK4; conditions: at 10 µM
T3 sequence (whole entry): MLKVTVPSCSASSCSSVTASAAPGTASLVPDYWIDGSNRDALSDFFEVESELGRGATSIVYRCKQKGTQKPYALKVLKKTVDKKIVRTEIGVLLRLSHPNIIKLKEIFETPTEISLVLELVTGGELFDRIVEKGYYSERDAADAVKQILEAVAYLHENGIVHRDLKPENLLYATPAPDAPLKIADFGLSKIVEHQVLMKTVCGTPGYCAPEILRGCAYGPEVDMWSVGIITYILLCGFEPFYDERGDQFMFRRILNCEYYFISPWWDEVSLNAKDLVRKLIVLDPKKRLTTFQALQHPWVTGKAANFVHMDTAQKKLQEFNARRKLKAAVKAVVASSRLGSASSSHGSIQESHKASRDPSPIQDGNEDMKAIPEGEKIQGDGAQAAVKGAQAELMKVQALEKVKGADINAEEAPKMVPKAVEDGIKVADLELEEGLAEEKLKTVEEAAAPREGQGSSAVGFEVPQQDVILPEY

[10] = target: Ribosomal protein S6 kinase alpha-1 (Homo sapiens, UniProt Q15418); experiment: Selectivity interaction (KinomeScan (DiscoverX)) EUB0000311b RPS6KA1; conditions: at 1 µM
Ribosomal protein S6 kinase alpha-1, sequence (Q15418 whole entry): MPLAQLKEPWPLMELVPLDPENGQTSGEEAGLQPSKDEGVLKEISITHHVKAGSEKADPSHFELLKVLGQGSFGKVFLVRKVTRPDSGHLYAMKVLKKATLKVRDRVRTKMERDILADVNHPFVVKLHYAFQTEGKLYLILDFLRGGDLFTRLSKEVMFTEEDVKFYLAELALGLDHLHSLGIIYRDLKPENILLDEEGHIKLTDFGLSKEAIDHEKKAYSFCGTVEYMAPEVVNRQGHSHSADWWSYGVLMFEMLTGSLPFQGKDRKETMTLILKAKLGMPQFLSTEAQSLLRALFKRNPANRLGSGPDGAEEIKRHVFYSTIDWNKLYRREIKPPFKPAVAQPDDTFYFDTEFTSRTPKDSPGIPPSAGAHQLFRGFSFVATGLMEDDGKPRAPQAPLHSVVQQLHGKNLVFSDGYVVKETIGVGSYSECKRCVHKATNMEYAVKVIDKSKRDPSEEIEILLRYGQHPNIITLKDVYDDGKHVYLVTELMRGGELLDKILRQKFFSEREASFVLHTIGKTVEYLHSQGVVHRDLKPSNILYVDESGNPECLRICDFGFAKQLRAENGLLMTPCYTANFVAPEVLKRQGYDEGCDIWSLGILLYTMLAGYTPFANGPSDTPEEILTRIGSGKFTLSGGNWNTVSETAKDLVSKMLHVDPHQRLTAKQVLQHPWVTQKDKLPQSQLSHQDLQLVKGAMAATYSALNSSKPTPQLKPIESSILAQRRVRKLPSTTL

[11] = target: Tyrosine-protein kinase Fer (Homo sapiens) (UniProt P16591); experiment: Selectivity interaction (Kinase screening (Nanosyn)) EUB0000604a FER

Structure (SMILES): CCN(CC)CCCCNc1ncc2cc(-c3cc(OC)cc(OC)c3)c(NC(=O)NC(C)(C)C)nc2n1
- % of control [1]: 100%

Structure (SMILES): CN(C)C/C=C/C(=O)Nc1ccc(C(=O)N2CCCC(Nc3ncc(Cl)c(-c4c[nH]c5ccccc45)n3)C2)cc1 (configuration not stated)
- % of control [2]: 97%

Structure (SMILES): CN1Cc2nccc(-c3cn(C)nc3-c3ccc(F)cc3)c2C1=O
- % of inhibition [3]: 7%

Structure (SMILES): Nc1cnc(N2CCc3cc(S(=O)(=O)Nc4c(F)cc(Cl)cc4F)cc(N4CCCC4=O)c32)nc1 [TP-020n]
- % of control [4]: 100%

Structure (SMILES): COCC(=O)NC/C=C/c1ccc2ncnc(Nc3ccc(Oc4ccc(C)nc4)c(C)c3)c2c1 [CP-724714]
- % of control [5]: 100%

Structure (SMILES): C=CC(=O)Nc1ccc(C(=O)Nc2[nH]nc3c2CN(C(=O)N[C@H](CN(C)C)c2ccccc2)C3(C)C)cc1
- % of engagement [6]: 5.7%

Structure (SMILES): C=CC(=O)Nc1cccc(C(=O)Nc2ccc(Nc3cc(-c4[nH]c(SC)nc4C)ccn3)cc2)c1
- % of control ([7]; at 1 µM): 95%
- % of control ([7]; at 5 µM): 92%

Structure (SMILES): CCC(=O)N1CC[C@H](Nc2ncnc3c2CN(c2cnc(OC)c(C(F)(F)F)c2)CC3)C1 [LENIOLISIB]
- EC50 [8]: 140 nM

Structure (SMILES): CCC(=O)N1CCN(c2ccc(-n3c(=O)ccc4cnc5ccc(-c6cnc7ccccc7c6)cc5c43)cc2C(F)(F)F)CC1
- % of control [9]: 90%

Structure (SMILES): CCc1ccccc1C(=O)Nc1n[nH]c2c(C)c(F)c(C3C(C#N)=C(C)N(C)C(C)=C3C#N)cc12 [BAY-3827]
- % of control [10]: 1.8%

Structure (SMILES): Cc1cnc(Nc2ccc(F)cc2Cl)nc1-c1c[nH]c(C(=O)N[C@H](CO)c2cccc(Cl)c2)c1
- % of inhibition [11]: 3%
